Test results taken from patent US11447467B2, “Compounds for the degradation of STK4 and treatment of hematologic malignancies” (DANA-FARBER CANCER INSTITUTE, INC., priority 2017, dated 2022).

Legend:
[1] = tested on: Peripheral blood mononuclear cells (PBMCs) from healthy volunteer; experiment: MTT cell growth assay, peripheral blood mononuclear cells; type: cell-based, human; conditions: PBMCs from healthy volunteer vs MM.1S cells, 48 h
Method: (§1) Dexamethasone-sensitive MM.1S human MM cell line were kindly provided by Dr. Steven Rosen (Northwestern University, Chicago, Ill., United States). Creblon stable knockout MM.1S cells were established in our laboratory using lentiviral CRBN shRNA system. The cell lines were routinely tested for Mycoplasma, and genotyped with two different methods. Peripheral blood mononuclear cells were obtained from healthy volunteer by Ficoll-Paque centriguation. All MM cell lines and PBMCs were cultured in RPMI-1640 media (EuroClone, Pero, Italy) containing 10% fetal bovine serum (FBS, GIBCO, Life technologies, Carlsbad, Calif., United States), and a mix of penicillin and streptomycin to 1% from EuroClone (ECB3001).
MM.1S and CRBN-knockout MM.1S cells were counted and diluted to a final concentration of 400,000 cells/mL. The cell were plated in 96-well plates and mixed with an equal volume of culture media containing DMSO or increasing concentration of a compound of the present application diluted in DMSO (the final DMSO concentration is equal between all tested samples), using a STARlet Robot (Hamiltonrobotics, Reno, Nev., United States). Cells with increasing concentration of compound of the present application and DMSO were harvested at different time points (24 hrs to 72 hrs). […] Absorbance was read at 570/630 nm.

[2] = tested on: CRBN-knockout MM.1S cells; experiment: MTT cell growth assay, CRBN-knockout MM.1S cells; type: cell-based, human; conditions: for cytotoxicity in CRBN-knockout cells (FIG. 11): 0.2-20 μM, 72 h; for cytotoxicity in CRBN-knockout cells (FIG. 5): parental or CRBN-knockout MM.1S cells, 24 h, 0.1-10 μM, MTT
Method: as §1
(§2) MM.1S and CRBN-knockout MM.1S cells were counted and diluted to a final concentration of 400,000 cells/mL. The cell were plated in 96-well plates and mixed with an equal volume of culture media containing DMSO or increasing concentration of a compound of the present application diluted in DMSO (the final DMSO concentration is equal between all tested samples), using a STARlet Robot (Hamiltonrobotics, Reno, Nev., United States). Cells with increasing concentration of compound of the present application and DMSO were harvested at different time points (24 hrs to 72 hrs). For assessment of celll growth MTT assay, the 3-[4,5 dimethylthiazol-2-yl]-2,5 diphenyltetrazolium bromide-MTT (Sigma-Aldrich, St. Louis, Mo., Unites States) colorimetric assay was used. At the various time points (24-72 hrs), 10 μL of 5 mg/mL MTT were added to cells. After 4 hrs incubation at 37° C., medium was discarded and 100 μL MTT stop solution (Isopropanol with 1 N HCl) was used to dissolve MTT metabolic products. Absorbance was read at 570/630 nm.

[3] = tested on: MM.1S cells resistant to lenalidomide (Len-R #1); experiment: MTT cell growth assay, lenalidomide-resistant MM.1S cells; type: cell-based, human; conditions: Len-R #1 MM.1S cells, 0.2-20 μM, 72 h
MM.1S cells = experiment: MTT cell growth assay, MM.1S cells; type: cell-based, human; conditions: 72 h; for MM cell growth inhibition (FIG. 10): 0.2-20 μM; for potency in inhibiting MM cell growth as compared to lenalidomide (FIG. 15): comparator lenalidomide (Len)
Method: as §1, §2

STK4 = target: T1, STK4 (Homo sapiens, UniProt Q13043); experiment: Western blotting of STK4 in whole cell lysates of MM.1S cells (parental or CRBN-knockout); type: cell-based; conditions: for degradation of STK4 in cereblon-knockout cells (FIG. 8): CRBN-K.O. vs parental MM.1S cells; for downregulation of STK4 over time (FIG. 3B): 10 μM; for downregulation of STK4 in MM.1S cells (FIG. 7): 0.6-20 μM; for downregulation of STK4 in MM.1S cells (FIG. 1): immunoblotting anti-STK4/anti-GAPDH; for degradation of STK4 in the presence of MLN4924 (FIG. 9): compound 10 μM, NEDD8 inhibitor MLN4924 1 μM
T1 construct: endogenous in cells; host or cells: MM.1S and CRBN-knockout MM.1S cells
T1 sequence (Q13043 1-487): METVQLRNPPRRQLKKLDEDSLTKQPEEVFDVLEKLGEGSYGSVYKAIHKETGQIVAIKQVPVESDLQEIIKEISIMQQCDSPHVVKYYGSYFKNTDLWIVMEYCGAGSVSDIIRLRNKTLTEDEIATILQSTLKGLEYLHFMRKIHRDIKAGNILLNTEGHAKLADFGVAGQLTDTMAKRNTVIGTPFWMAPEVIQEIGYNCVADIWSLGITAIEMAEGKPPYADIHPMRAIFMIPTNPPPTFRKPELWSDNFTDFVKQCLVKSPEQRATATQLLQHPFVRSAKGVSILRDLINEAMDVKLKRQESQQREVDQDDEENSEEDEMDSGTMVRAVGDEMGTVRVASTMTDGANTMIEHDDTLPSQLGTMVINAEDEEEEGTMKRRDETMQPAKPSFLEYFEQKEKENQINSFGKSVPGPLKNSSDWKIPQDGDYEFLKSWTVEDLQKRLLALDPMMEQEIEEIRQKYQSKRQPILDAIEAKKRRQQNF
From the text: MM.1S, KMS20 and H929 cells are counted, diluted and plated. Cells are then […] with DMSO or different concentration of a compound of the present application for 6 hrs, 24 hrs or 48 hrs. MM cells are then collected and centrifuged at RT and the pellets are re-suspended in lysis buffer. Cell lysates are subjected to sodium dodecyl sulfate-polyacrylamide gel electrophoresis SDS-PAGE, transferred to nitrocellulose membranes, and immunoblotted with different antibodies.
MM.1S and CRBN knockout MM.1S cells were counted, diluted and plated in six-well plates to a final concentration of 500,000 cells/well. Cells were then harvested with DMSO or different concentration of a compound of the present application (4 h-24 h). MM cells were then collected and centrifuged for 5 min, 1300 rpm at RT. The pellets were re-suspended in cell lysis buffer (20 mM Tris-HCl (pH 7.5), 150 mM NaCl, 1 mM Na2EDTA, 1 mM EGTA, 1% Triton, 2.5 mM sodium pyrophosphate, 1 mM beta-glycerophosphate, 1 mM Na3VO4, 1 μg/ml leupeptin. Cell lysates were subjected to sodium dodecyl sulfate-polyacrylamide gel electrophoresis SDS-PAGE, transferred to nitrocellulose membranes, and immunoblotted with different antibodies: MST1 (STK4) (#14946), K48-linkage Specific Polyubiquitin (#8081) and GAPDH (#5174) from Cell Signaling, Beverly, Mass., United States: IKZF1 (AF4984) (from R&D Systems, Mineapolis, Minn., United States). All antibodies were diluted 1:1000, except for GAPDH antibody (1:4,000 dilution).

[4] = MM.1S cells, 24 h, indicated concentrations

| degradation of STK4 in cereblon-knockout cells (FIG. 8) (STK4; 24 h) | downregulation of STK4 in MM.1S cells (FIG. 7) (STK4; MM.1S cells, 24 h) | downregulation of STK4 in MM.1S cells (FIG. 1) (STK4; [4]) | degradation of STK4 in the presence of MLN4924 (FIG. 9) (STK4; MM.1S cells, 24 h) | downregulation of STK4 in MM.1S cells (FIG. 2) (STK4; MM.1S cells, 24 h, 0.15-5 μM, Western blotting) | degradation of STK4 in cereblon-knockout cells (FIG. 4) (STK4; cereblon (CRBN)-knockout vs parental MM.1S cells, 24 h, indicated concentrations) | Structure (SMILES) | cytotoxicity to peripheral blood mononuclear cells (FIG. 13A/13B) [1] | cytotoxicity in CRBN-knockout cells (FIG. 11) [2] | cytotoxicity in CRBN-knockout cells (FIG. 5) [2] | cytotoxicity in acquired lenalidomide-resistant cells (FIG. 12B) [3] | MM cell growth inhibition (FIG. 10) (MM.1S cells) | potency in inhibiting MM cell growth as compared to lenalidomide (FIG. 15) (MM.1S cells) | downregulation of STK4 over time (FIG. 3B) (STK4; MM.1S cells, 4-24 h) | downregulation of STK4 over time (FIG. 3A) (STK4; MM.1S cells, 2.5 μM, 4-24 h) |
| --- | --- | --- | --- | --- | --- | --- | --- | --- | --- | --- | --- | --- | --- | --- |
| absence of degradation of STK4 | dose dependent downregulation of STK4 | dose dependent downregulation of STK4 | absence of degradation of STK4 |  |  | Nc1ncc(-c2ccc(S(=O)(=O)Nc3cccc(NC(=O)CCOCCOCCOCCOCCOCCNc4cccc5c4C(=O)N(C4CCC(=O)NC4=O)C5=O)c3)cc2F)cc1-c1ccc2c(c1)CCNC2=O (centres unmarked) [Compound I-10] | absence of cytotoxic | decrease in cytotoxicity | decrease in cytotoxicity | decrease in cytotoxicity | potent MM cell growth inhibition | greater potency | downregulation of STK4 by compounds of the application in a time-dependent fashion |  |
| absence of degradation of STK4 | dose dependent downregulation of STK4 |  | absence of degradation of STK4 |  |  | Nc1ncc(-c2ccc(S(=O)(=O)Nc3ccc(NC(=O)CCOCCOCCOCCOCCOCCNc4cccc5c4C(=O)N(C4CCC(=O)NC4=O)C5=O)cc3)cc2F)cc1-c1ccc2c(c1)CCNC2=O (centres unmarked) [Compound I-7, N-(4-((4-(6-amino-5-(1-oxo-1,2,3,4-tetrahydroisoquinolin-6-yl)pyridin-3-yl)-3-fluorophenyl)sulfonamido)phenyl)-1-((2-(2,6-dioxopiperidin-3-yl)-1,3-dioxoisoindolin-4-yl)amino)-3,6,9,12,15-pentaoxaoctadecan-18-amide] | absence of cytotoxic | decrease in cytotoxicity |  | decrease in cytotoxicity | potent MM cell growth inhibition | greater potency |  |  |
|  |  | dose dependent downregulation of STK4 |  |  |  | Nc1ncc(-c2ccc(S(=O)(=O)NC3CCCN(C(=O)CCOCCOCCOCCOCCOCCNc4cccc5c4C(=O)N(C4CCC(=O)NC4=O)C5=O)C3)cc2F)cc1-c1ccc2c(c1)CCNC2=O (centres unmarked) [Compound I-20, 4-(6-amino-5-(1-oxo-1,2,3,4-tetrahydroisoquinolin-1-yl)pyridin-3-yl)-N-(1-(1-((2-(2,6-dioxopiperidin-3-yl)-1,3-dioxoisoindolin-4-yl)amino)-3,6,9,12,15-pentaoxaoctadecan-18-oyl)piperidin-3-yl)-3-fluorobenzenesulfonamide] |  |  |  |  |  |  |  |  |
|  |  | dose dependent downregulation of STK4 |  | dose dependent downregulation of STK4 | absence of degradation of STK4 | Nc1ncc(-c2ccc(S(=O)(=O)N(CCCNC(=O)CCOCCOCCOCCOCCOCCNc3cccc4c3C(=O)N(C3CCC(=O)NC3=O)C4=O)C3CC3)cc2F)cc1-c1ccc2c(c1)CCNC2=O (centres unmarked) [Compound I-19, N-(3-((4-(6-amino-5-(1-oxo-1,2,3,4-tetrahydroisoquinolin-6-yl)pyridin-3-yl)-N-cyclopropyl-3-fluorophenyl)sulfonamido)propyl)-1-((2-(2,6-dioxopiperidin-3-yl)-1,3-dioxoisoindolin-4-yl)amino)-3,6,9,12,15-pentaoxaoctadecan-18-amide] |  |  | decrease in cytotoxicity |  |  |  |  | downregulation of STK4 by compounds of the application in a time-dependent fashion |
|  |  |  |  |  |  | Nc1ncc(-c2ccc(S(=O)(=O)Nc3cccc(NC(=O)CCOCCOCCOCCOCCOCCOc4cccc5c4C(=O)N(C4CCC(=O)NC4=O)C5=O)c3)cc2F)cc1-c1ccc2c(c1)CCNC2=O (centres unmarked) [Compound I-17] |  |  |  |  |  |  | downregulation of STK4 by compounds of the application in a time-dependent fashion |  |
